Measurements as given in publication PMC10745926, “Synthesis and Evaluation of Compound Targeting α7 and β2 Subunits in Nicotinic Acetylcholinergic Receptor” (Molecules, 2023).
Like-named read-outs stand apart in the source and are kept apart here. Marks after values point to notes of the source that are not given here.

Columns and labels:
[1] = target: T1, α4β2* nAChR (Rattus norvegicus, UniProt P09483+P12390); conditions: read-out: Binding affinity α4β2*; rat brain cortex labeled with 3H-epibatidine; cited from earlier work
T1 construct: Horizontal brain slices, 10 µm thick from male Sprague Dawley rats; from tissue; host or cells: rat brain slices (male Sprague Dawley), several brain regions

[2] = target: T2, α7 nAChR (Rattus norvegicus, UniProt Q05941); set-up: method as in PMID 28875553; conditions: rat cloned receptors labeled with α-[125I]BuTX; read-out: Binding affinity α7*; cited from earlier work
[3] = target: T1, α4β2* nAChR; assay: Rat brain homogenates labeled with 3H-cytisine (literature); type: binding; conditions: α4β2 value from 3H-cytisine rat brain homogenates, α7 from rat cloned receptors
[4] = target: T1, α4β2* nAChR; type: binding
[5] = target: T1, α4β2* nAChR; assay: [3H]cytisine competition binding on rat brain slices (autoradiography)
Procedure: Our previously published procedures were used for [^3H]cytisine experiments. Horizontal brain slices, 10 µm thick from male Sprague Dawley rats, were preincubated in the buffer (50 mmol/L Tris HCl containing 120 mmol/L NaCl, 5 mmol/L KCl, 2.5 mmol/L CaCl2, 1 mmol/L MgCl2, pH 7.4) for 10 min. The pre-incubation buffer was then discarded and the slices were incubated with [^3H]cytisine (2.5 nM, specific activity of 32.7 Ci/mmol) at 2 °C for 75 min. […] After incubation, slices were washed twice (2 min each wash) with ice-cold Tris buffer, pH 7.4, followed by a quick rinse in cold (0–5 °C) deionized water. The slides were then air dried and the radiolabeled brain sections were apposed on storage phosphor screens for two weeks (Perkin Elmer Multisensitive, Medium MS, New Jersy, USA). For autoradiographic analysis, the apposed phosphor screens were read and analyzed by OptiQuant acquisition and analysis program of the Cyclone Storage Phosphor System (Packard Instruments Co., Boston, MA, USA). Regions of interest of same size were drawn and analyzed on brain regions using OptiQuant software version 2 and binding of [^3H]cytisine measured in DLU/mm^2. Data were analyzed using following procedure: (a) the non-specific binding of [^3H]cytisine was subtracted for all samples; (b) the specific binding was normalized to 100% (no competitive ligand); and (c) the binding isotherms were fit to the Hill equation (KELL BioSoft software (v 6), Cambridge, UK).

[6] = target: T2, α7 nAChR; assay: biochemical; type: binding
[7] = target: α7 nAChR; set-up: method as in PMID 24050653; conditions: HEK293 cells transfected with α7 nAChRs; read-out: Binding affinity α7*; cited from earlier work
[8] = test system: α7 nAChR; assay: HEK293 cells transfected with α7 nAChRs (ASEM, literature); type: binding; conditions: from cited affinities
[9] = target: α4β2 nAChR; set-up: method as in PMID 24050653; conditions: HEK293 cells transfected with α4β2 nAChRs; read-out: Binding affinity α4β2*; cited from earlier work
[10] = test system: α7 nAChR; assay: HEK293 membranes expressing α7 nAChRs (Iodo-ASEM, literature); type: binding; conditions: IodoASEM, from cited affinities
[11] = target: α4β2 nAChR; set-up: method as in PMID 25687449; conditions: HEK293 membranes expressing α4β2 nAChRs; read-out: Binding affinity α4β2*; cited from earlier work
[12] = target: α7 nAChR; set-up: method as in PMID 25687449; conditions: cited from earlier work
[13] = test system: α4β2* nAChR; conditions: cited from earlier work
[14] = target: T2, α7 nAChR; type: binding
[15] = target: T2, α7 nAChR; set-up: method as in PMID 18445710; conditions: tested in rat; read-out: Binding affinity α7*; cited from earlier work
[16] = test system: human α4β2 nAChR; conditions: cited from earlier work
[17] = test system: human α4β2 nAChR; conditions: cytisine, from cited affinities
[18] = target: human α7 nAChR; conditions: read-out: Binding affinity α7*; human α7 nAChR in SH-SY5Y cells; cited from earlier work
[19] = frontal cortex values taken from Table 1

Fc1ncccc1OC[C@@H]1C=CCN1 [Nifene]
Ki [1]: 1.07 nM
Ki [2]: 169 nM
α7/α4β2 Ratio [3]: 338
α4β2/α7 Ratio ([4]; listed as with α4β2 value from 3H-epibatidine rat cortex): 0.007
α7/α4β2 Ratio ([4]; α4β2 value from 3H-epibatidine rat cortex, α7 from rat cloned receptors): 158

c1ncc(N2CCN3CCC2CC3)cc1OCC1CCN1 [KS7, 3-(2-(S)-azetidinylmethoxy)-5-(1,4-diaza-bicyclo[3.2.2]nonane)pyridine]
IC50 ([5]; frontal cortex value taken from Table 1, read-out: Binding affinity α4β2*): 109 nM
α4β2/α7 Ratio [5, 19]: 0.01 ^j
α7/α4β2 Ratio [5, 19]: 91 ^j
IC50 ([5]; rat brain slices, Anterior Cingulate, read-out: Inhibition constants (IC50), [3H]Cytisine, α4β2* nAChRs): 49.5 nM
IC50 ([5]; rat brain slices, Frontal Cortex, read-out: Inhibition constants (IC50), [3H]Cytisine, α4β2* nAChRs): 109 nM
IC50 ([5]; rat brain slices, Striatum, read-out: Inhibition constants (IC50), [3H]Cytisine, α4β2* nAChRs): 86.9 nM
IC50 ([5]; rat brain slices, Subiculum, read-out: Inhibition constants (IC50), [3H]Cytisine, α4β2* nAChRs): 172 nM
IC50 ([5]; rat brain slices, Thalamus, read-out: Inhibition constants (IC50), [3H]Cytisine, α4β2* nAChRs): 134 nM
IC50 ([5]; rat brain, several brain regions (abstract), read-out: IC50 for [3H]cytisine radiolabeled sites): 50 to 172 nM
α7/α4β2 Ratio ([5]; ratio of IC50 values, Anterior Cingulate): 254
α7/α4β2 Ratio ([5]; ratio of IC50 values, Frontal Cortex): 91
IC50 ([6]; frontal cortex value taken from Table 1, read-out: Binding affinity α7*): 9900 nM
IC50 ([6]; rat brain slices, Anterior Cingulate, read-out: Inhibition constants (IC50), [125I]α-BuTX, α7* nAChRs): 12600 nM
IC50 ([6]; rat brain slices, Frontal Cortex, read-out: Inhibition constants (IC50), [125I]α-BuTX, α7* nAChRs): 9900 nM
IC50 ([6]; rat brain slices, Hippocampus, read-out: Inhibition constants (IC50), [125I]α-BuTX, α7* nAChRs): 33200 nM
IC50 ([6]; rat brain slices, Inferior Colliculus, read-out: Inhibition constants (IC50), [125I]α-BuTX, α7* nAChRs): 46800 nM

O=S1(=O)c2cc(N3CCN4CCC3CC4)ccc2-c2cccc(F)c21 [ASEM]
Ki [7]: 0.37 nM
α7/α4β2 Ratio [8]: 0.0007
Ki [9]: 562 nM

O=S1(=O)c2cc(N3CCN4CCC3CC4)ccc2-c2cccc(I)c21 [IodoASEM]
α7/α4β2 Ratio [10]: 0.0003
Ki [11]: 1710 nM
Ki ([12]; HEK293 membranes expressing α7 nAChRs, read-out: Binding affinity α7*): 0.5 nM
α4β2/α7 Ratio ([12]; HEK293 membranes): 3414 ^h

α-Iodobungarotoxin
Binding affinity α4β2* [13]: >1000 ^f nM
α4β2/α7 Ratio [14]: 2000
α7/α4β2 Ratio [14]: 0.0005
Ki [15]: 0.5 nM

O=c1cccc2n1C[C@@H]1CNC[C@H]2C1 [Cytisine]
α7/α4β2 Ratio ([16]; heterologously expressed human receptors): 544 ^e
Ki ([16]; read-out: Binding affinity α4β2*, human α4β2 in HEK293 cells): 1.27 nM
α4β2/α7 Ratio [17]: 0.002
Ki [18]: 691 nM
